In article PMC7854658, “Structural basis for ligand recognition of the neuropeptide Y Y2 receptor” (Nature Communications, 2021):
Substitutions are numbered along the chain they refer to. “And” between values parts separate entries of the source, which are not always exact repeats. Identical values can stand only once.

Key:
Assay in all cases: NPY-induced IP accumulation (IP-One), mutant
Format in all cases: cell-based
Y2R mutant T111^2.65A = biological target: T1, Y2R mutant T111^2.65A (Homo sapiens, UniProt P49146, T111A)
T1 construct: expressed in transfected cells; host or cells: HEK293
T1 sequence (P49146 1-381 T111A): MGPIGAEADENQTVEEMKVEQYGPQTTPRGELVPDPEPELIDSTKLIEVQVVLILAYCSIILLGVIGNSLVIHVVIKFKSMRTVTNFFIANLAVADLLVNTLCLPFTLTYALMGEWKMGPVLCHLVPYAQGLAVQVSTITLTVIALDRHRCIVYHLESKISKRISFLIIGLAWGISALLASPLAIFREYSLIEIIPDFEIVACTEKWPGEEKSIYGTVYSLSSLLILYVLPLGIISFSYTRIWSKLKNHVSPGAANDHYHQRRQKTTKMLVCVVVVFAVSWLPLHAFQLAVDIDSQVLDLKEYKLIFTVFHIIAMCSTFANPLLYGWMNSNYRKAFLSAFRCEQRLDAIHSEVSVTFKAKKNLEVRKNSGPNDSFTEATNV
Method: (§1) The plasmid hY2R_eYFP_pVitro2 encoding the WT Y2R and a fluorophore for investigating the receptor localization was used as template for the generation of receptor point mutations as previously described. Mutagenesis PCR was performed using the Phusion High-Fidelity Polymerase (Thermo Fisher Scientific, Waltham, MA, USA). […] The preparations of the plasmid DNA were performed using the Wizard plus Mini or Midi DNA purification kit (Promega, Madison, WI, USA).
(§2) To determine the contribution of residues to antagonist binding, IP-One accumulation assays (Cisbio, Codolet, France) were performed. HEK293 cells were seeded into six-well plates and transiently cotransfected with 3200 ng of receptor plasmid DNA and 800 ng of the chimeric G protein (Gα∆6qi4myr) to redirect the Gαi signaling pathway to the Gαq phospholipase C pathway. Transient transfection was carried out using Metafectene as transfection reagent according to the manufacturer’s protocol (Biontex, Munich, Germany) over night. The cells were then reseeded into white 384-well microplates (Greiner Bio-One, Kremsmünster, Austria) at a density of 15,000 cells per well and grown for additional 24 h.
(§3) All dilutions were performed in HBSS containing 20 mM LiCl (stimulation buffer) and DMSO with a final concentration of 0.01%.
(§4) To determine the amount of cellular IPs, the FRET acceptor (IP1-d2) and the FRET donor (anti-IP1-Cryptate) were reconstituted and diluted in lysis and detection buffer (1:20) as described in the manufacturer’s protocol. Three microliters of both solutions were added, and the cells were incubated on a tumbler for 60 min.

Y2R mutant V134^3.36A = biological target: T2, Y2R mutant V134^3.36A (Homo sapiens, UniProt P49146, V134A)
T2 construct: expressed in transfected cells; host or cells: HEK293
T2 sequence (P49146 1-381 V134A): T1 sequence (P49146 1-381 T111A) with A111T, V134A
Method: as §1, §2, §3, §4

Y2R mutant D292^6.59N = biological target: T3, Y2R mutant D292^6.59N (Homo sapiens, UniProt P49146, D292N)
T3 construct: expressed in transfected cells; host or cells: HEK293
T3 sequence (P49146 1-381 D292N): T1 sequence (P49146 1-381 T111A) with A111T, D292N
Method: as §1, §2, §3, §4

Y2R mutant L284^6.51A = biological target: T4, Y2R mutant L284^6.51A (Homo sapiens, UniProt P49146, L284A)
T4 construct: expressed in transfected cells; host or cells: HEK293
T4 sequence (P49146 1-381 L284A): T1 sequence (P49146 1-381 T111A) with A111T, L284A
Method: as §1, §2, §3, §4

Y2R mutant W116^ECL1A = biological target: T5, Y2R mutant W116^ECL1A (Homo sapiens, UniProt P49146, W116A); settings: 1 μM antagonist, source data Fig. 3
T5 construct: expressed in transfected cells; host or cells: HEK293
Method: as §1, §2, §3, §4

[1] = 1 μM antagonist, source data Fig. 3
[2] = EC50(NPY + 1 μM antagonist)/EC50(NPY)
[3] = EC50 ratio (WT)/EC50 ratio (mutant)

T5 sequence (P49146 whole entry W116A): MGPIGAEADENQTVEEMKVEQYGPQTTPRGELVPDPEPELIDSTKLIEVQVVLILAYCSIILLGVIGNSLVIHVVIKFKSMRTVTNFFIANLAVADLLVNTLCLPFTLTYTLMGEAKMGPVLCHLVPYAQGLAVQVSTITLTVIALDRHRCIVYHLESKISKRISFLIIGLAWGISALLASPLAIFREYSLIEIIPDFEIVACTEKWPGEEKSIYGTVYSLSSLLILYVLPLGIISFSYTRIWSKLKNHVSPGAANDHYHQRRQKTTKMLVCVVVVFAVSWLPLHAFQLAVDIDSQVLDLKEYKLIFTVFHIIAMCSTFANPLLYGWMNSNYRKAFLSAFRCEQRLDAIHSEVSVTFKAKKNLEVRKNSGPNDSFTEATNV

SMILES: N=C(N)NCCC[C@H](NC(=O)CC1(CC(=O)N2CCN(C3c4ccccc4NC(=O)c4ccccc43)CC2)CCCC1)C(=O)NCCn1c(=O)n(-c2ccccc2)n(-c2ccccc2)c1=O (some centres unmarked) [BIIE0246]
- Average EC50 ratio (Y2R mutant T111^2.65A; [1]): 247.7
- EC50 ratio (individual experiments) (Y2R mutant T111^2.65A; [1]): 265.4 and 230.1
- EC50 ratio (Y2R mutant T111^2.65A; [2]): 265 and 230
- Ratio change (fold) (Y2R mutant T111^2.65A; [3]): 0.6 fold and 0.7 fold
- Average EC50 ratio (Y2R mutant V134^3.36A; [1]): 81.8
- EC50 ratio (individual experiments) (Y2R mutant V134^3.36A; [1]): 76.2 and 87.4
- EC50 ratio (Y2R mutant V134^3.36A; [2]): 76 and 87
- Ratio change (fold) (Y2R mutant V134^3.36A; [3]): 2 fold and 1.8 fold
- Average EC50 ratio (Y2R mutant D292^6.59N; [1]): 66.7
- EC50 ratio (individual experiments) (Y2R mutant D292^6.59N; [1]): 70.5 and 62.9
- EC50 ratio (Y2R mutant D292^6.59N; [2]): 71 and 63
- Average EC50 ratio (Y2R mutant L284^6.51A; [1]): 108.6
- EC50 ratio (individual experiments) (Y2R mutant L284^6.51A; [1]): 88.8 and 128.4
- EC50 ratio (Y2R mutant L284^6.51A; [2]): 89 and 128
- Ratio change (fold) (Y2R mutant L284^6.51A; [3]): 1.8 fold and 1.2 fold
- Average EC50 ratio (Y2R mutant W116^ECL1A): 38.2
- EC50 ratio (individual experiments) (Y2R mutant W116^ECL1A): 21.7 and 54.7
